Conditions: in vivo, po; for Cmax of free silybin / mean Cmax of total silybin (parent plus sulfate and glucuronide conjugates): rat
Protocol: The rats were randomly divided into three groups with six rats in each group. The oral administration dosages of silybin were 10 and 50 mg/10 ml/kg body weight without or with baicalein/tangeretin at the same dosage. Before experimentation, the animals were fasted for 24 hours with water ad libitum, and maintained at a temperature of 21° C. with 70% relative humidity and a 12 hour light/dark cycle. After oral administration, tail vein blood samples were collected (0.1 ml) into heparinized 0.65 ml micro-centrifuge tubes at the following time intervals: 0, 15, 30, 45, 60, 90, 120, 240, 360, 480, and 720 minutes. The blood samples then were immediately centrifuged at 4,000 rotations per minute (rpm) for 15 minutes at 4 degrees Celsius (° C.), and the resulting plasma was collected and stored at −80° C. until analysis.
To estimate the concentration of total glucuronide and sulfate conjugates of silybin in bio-samples including plasma, cell, and media, enzymatic hydrolysis with […] (8000 U/ml) and sulfatase (80 units per milliliter (U/ml)) was performed with 10 microliter (μl) aliquot of samples. The reactions were terminated by the addition of 40 μl of ice-cold acetonitrile containing 1% glacial acetic acid and internal standard NG (25 ng/ml). After centrifugation at 13,500 rotations per minute (rpm) for 15 minutes at 4° C., the supernatants were evaporated to dryness by nitrogen evaporator, and the residue was reconstituted with 60 μl of 30% methanol in water containing 1% ascorbic acid. An aliquot of 10 μl of the final solution was injected into LC-MS/MS for analysis. The completion of de-conjugation reaction was monitored by mass spectrometry. In parallel, 10 μl aliquots of samples without enzymes were treated with 40 μl of ice-cold acetonitrile containing 1% glacial acetic acid and naringenin (NG) (25 nanogram per milliliter (ng/ml)) to determine the concentration of free silybin. The total concentrations of glucuronides and sulfates in samples were estimated from the difference between the amount of silybin released by incubation with both glucuronidase and sulfatase and the amount of free silybin without enzymes incubation.
The analysis of silybin and total concentrations of glucuronides and sulfates was performed on an Agilent HP 1100 LC-MS system (Agilent, CA). A Waters ACQUITY UPLC® BEH C18 Column (1.7 μm, 2.1×50 mm, Waters Corp., Ireland) was used for detection with a C18 Security Guard cartridge (4×2.0 mm i.d., Phenomenex, Torrance, Calif.). Silybin A and silybin B were well separated using optimized gradient elution with methanol (mobile phase B) and 0.1% formic acid in water (mobile phase A) as mobile phase at a flow rate of 0.4 ml/min with a run time of 10 minutes. The gradient employed was as follows (time: mobile phase B percentage): 0 min: 25%, 6 minutes: 40%, 6.5 minutes: 25%.
Pharmacokinetic parameters including half-life (T1/2), volume of distribution (Vd), oral clearance (CL/F), and area under the concentration-time curve (AUC) were calculated using the software package PK Solutions 2.0.2 (SUMMIT Co., Ashland, Ohio, USA) with non-compartment analysis. One-way analysis of variance (ANOVA) was used when multiple groups were compared and the Bonferroni post hoc correction was used to accommodate multiple testing. The two-sided unpaired Student's t-test was used when treatments or differences between two groups were compared. […] During all statistical analyses, differences in group sizes were considered in the calculations. Differences were considered statistically significant when P<0.05. All data is presented as geometric mean±S.D.

Structure (SMILES) | fraction existing as conjugates in rat plasma | Cmax of free silybin | mean Cmax of total silybin (parent plus sulfate and glucuronide conjugates)
COc1cc([C@H]2Oc3cc([C@H]4Oc5cc(O)cc(O)c5C(=O)[C@@H]4O)ccc3O[C@@H]2CO)ccc1O [silybin A] | about 97% | 26 ± 13 ng/mL | 1109 ± 158 ng/mL
COc1cc([C@@H]2Oc3cc([C@H]4Oc5cc(O)cc(O)c5C(=O)[C@@H]4O)ccc3O[C@H]2CO)ccc1O [silybin B] | ~99% | 16 ± 5 ng/mL | 2478 ± 284 ng/mL
